# Columns and labels:
# Settings in all cases: for Capture of [^3H]3-O-MG: Phloretin 0.25 mM
# [1] = system: normal human keratinocytes; test: Transport of glucides (glucose), normal human keratinocytes; assay type: cell-based
# Description: The obtained microsomes from human keratinocytes in culture were washed 3 times with a PBS buffer without glucose then pre-incubated in 1 ml of the same buffer for 30 minutes at 37° C. Subsequently, this solution was discarded and the microsomes placed into the glucose-free PBS buffer containing 3-0-Methyl glucose (MG) and [^3H] 3-0-MG with stirring in a water-bath at 37° C. The capture of 3-0-MG is stopped by addition of 1 ml of cold PBS containing cytochalasine B. The kinetics of incubation was performed between 30 and 120 seconds. The microsomes were further rinsed 2 times with PBS, then dissolved in NaOH (1M) at 4° C., over night. The radioactivity was determined with a scintillation counter. 7.2—Assessment of the Rate of Transport of Macromolecules at the Level of Normal Human Keratinocytes The applied method was that of explants allowing to obtain, from a biopsy of human skin, keratinocytes in primary cultures. The assays were carried out on keratinocytes between the 2nd and the 4th passage in order to ensure a reproductibility between the different experiences. The keratinocytes were divided into multiwell plates (6 wells) at a rate of 10^5 cells per well in 1 ml of culture medium […] supplemented with insulin and hydrocortisone. The cells were incubated in the presence and absence of the investigated product. 7.2.1—Transport of Glucides (Glucose) The assay was carried out in triplicate on normal human keratinocytes in culture. • Charge 1: negative control not receiving any product. • Charge 2: positive control (0.25 mM Phloretin) • Charge 3: treated receiving the investigated product • Charges 6-8: treated with 0.25 mM phloretin and the investigated product (3 concentrations) The treatment of keratinocytes with the BB product in the presence and absence of 0.25 mM phloretin was carried out for 20 minutes at 37° C. The membrane microsomes were separated by differential centrifugation. The same protocol of capture of [3H] 3-0-Methyl-Glucose was adopted for the determination of the rate of transport of glucose. (cf. 6.1.1).
# [2] = system: human keratinocytes in senescence; test: Transport of glucids (glucose), human keratinocytes in senescence; assay type: cell-based
# Description: The obtained microsomes from human keratinocytes in culture were washed 3 times with a PBS buffer without glucose then pre-incubated in 1 ml of the same buffer for 30 minutes at 37° C. Subsequently, this solution was discarded and the microsomes placed into the glucose-free PBS buffer containing 3-0-Methyl glucose (MG) and [^3H] 3-0-MG with stirring in a water-bath at 37° C. The capture of 3-0-MG is stopped by addition of 1 ml of cold PBS containing cytochalasine B. The kinetics of incubation was performed between 30 and 120 seconds. The microsomes were further rinsed 2 times with PBS, then dissolved in NaOH (1M) at 4° C., over night. The radioactivity was determined with a scintillation counter. 7.3-Assessment of the Rate of Transport of Macromolecules at the Level of Human Keratinocytes in Senescence The senescence is a phenomenon of cellular aging, where the cells are arrested in the phase G1 of the cell cycle and never enter the synthesis phase leading to the cell division. Senescent cells are characterized by their slow metabolism at synthesis and transport of macromolecules levels. The cells in culture deprived of serum stop their growth, but continue to progress through the cell cycle until they reach the phase G1. The applied method allowed to obtain, from a human skin biopsy, primary cultures of keratinocytes. The assays were performed on keratinocytes, between the 8th and the 10th passage, in order to ensure the presence of senescent cells at control cells level. The keratinocytes were seeded in multiwell plates (6 wells) at a rate of 10^5 cells per well in 3 ml of culture medium […] supplemented with EGF, hydrocortisone, insulin and […]. Afterwards they are maintained for 5 days in incubator under CO2. 7.3.1-Transport of Glucids (Glucose) The assay was carried out in triplicate on human keratinocytes in senescence. • Charge 1: negative control not receiving any product. • Charge 2: positive control (0.25 mM Phloretin) • Charge 3: treated receiving the investigated product • Charges 6-8: treated with 0.25 mM phloretin and with the investigated product (3 concentrations) The treatment of keratinocytes with the BB product in the presence and absence of 0.25 mM phloretin was performed for 20 minutes at 37° C. The membrane microsomes were separated by differential centrifugation. The same protocol of capture of [3H] 3-0-Methyl-Glucose was applied to the determination of the rate of transport of glucose (cf. 6.1.1).
# [3] = system: microsomes of human keratinocytes; test: Transport of glucids (glucose), direct treatment of isolated microsomes; assay type: biochemical
# Description: 7.1—Assessment of the Rate of Transport of Macromolecules (Glucids, Lipids and Proteins) in a System of Isolated Microsomes. Direct Effect of the BB Product on Isolated Microsomes: The microsomes of human keratinocytes form a membrane fraction obtained by high-speed differential centrifugation of a cell homogenate. This preparation of microsomes requires the addition of exogenous cofactors such as NADPH. 7.1.1—Transport of Glucids (Glucose) The assay was performed in triplicate after the direct treatment of microsomes. • Charge 1: negative control not receiving any product. • Charge 2: positive control (0.25 mM phloretin) • Charges 3-5: treated with the investigated product (3 concentrations) • Charges 6-8: treated with 0.25 mM phloretin and with the investigated product (3 concentrations) The obtained microsomes from human keratinocytes in culture were washed 3 times with a PBS buffer without glucose then pre-incubated in 1 ml of the same buffer for 30 minutes at 37° C. Subsequently, this solution was discarded and the microsomes placed into the glucose-free PBS buffer containing 3-0-Methyl glucose (MG) and [^3H] 3-0-MG with stirring in a water-bath at 37° C. The capture of 3-0-MG is stopped by addition of 1 ml of cold PBS containing cytochalasine B. The kinetics of incubation was performed between 30 and 120 seconds. The microsomes were further rinsed 2 times with PBS, then dissolved in NaOH (1M) at 4° C., over night. The radioactivity was determined with a scintillation counter. The treatments of microsomes with the BB product alone or in the presence of phloretin were carried out at the same time as the introduction of [3H] 3-0-MG into the incubation medium. The protein assay was performed following the BRADFORD method. The increase in absorbance at 595 nm, determined with spectrophotometer, is proportional to the protein concentration.
smiles,measurement,setting,value
"O=C(CCc1ccc(O)cc1)c1c(O)cc(O)cc1O [Phloretin, phloretin]",Capture of [^3H]3-O-MG,[1]; 30 s,6 nmol/mg of proteins
same,Capture of [^3H]3-O-MG,[1]; 60 s,8 nmol/mg of proteins
same,Capture of [^3H]3-O-MG,[1]; 90 s,9 nmol/mg of proteins
same,Capture of [^3H]3-O-MG,[1]; 120 s,10 nmol/mg of proteins
same,rate of transport of glucose (in words),[1]; phloretin 0.25 mM alone,strongly inhibits
same,Capture of [^3H]3-O-MG,[2]; 30 s,1 nmol/mg of proteins
same,Capture of [^3H]3-O-MG,[2]; 60 s,3 nmol/mg of proteins
same,Capture of [^3H]3-O-MG,[2]; 90 s,5 nmol/mg of proteins
same,Capture of [^3H]3-O-MG,[2]; 120 s,7 nmol/mg of proteins
same,rate of transport of glucose (in words),[2]; phloretin 0.25 mM alone,strongly inhibits
same,Capture of [^3H]3-O-MG,[3]; 30 s,4 nmol/mg proteins
same,Capture of [^3H]3-O-MG,[3]; 60 s,6 nmol/mg proteins
same,Capture of [^3H]3-O-MG,[3]; 90 s,8 nmol/mg proteins
same,Capture of [^3H]3-O-MG,[3]; 120 s,8 nmol/mg proteins
same,rate of transport of glucose (in words),[3]; phloretin 0.25 mM alone,strongly inhibits
